From patent publication US11618765B2, “Broad-spectrum antiviral nucleoside derivatives” (priority 2020, dated 2023)

Legend:
[1] = target: T1, HIV-reverse transcriptase (Human immunodeficiency virus type 1 group M subtype B, UniProt P04585); test: inhibition of HIV-reverse transcriptase; type: biochemical; conditions: ratio of IC50 values
From the text: Another example of a pyrimidine nucleoside analog as a direct acting antiviral is imidine (dImd), a thymidine analog, [17]. […] Its monophosphate (dIMP) readily incorporated into proviral DNA in place of dTMP, preferentially opposite to adenine (A) in the viral RNA template and caused a decrease in the fidelity of replication at the incorporated sites, due to misincorporation.

[2] = target: T1, HIV-reverse transcriptase; conditions: read-out: IC50 for inhibition of HIV-reverse transcriptase; cited from earlier work
Molt-4 DNA polymerase a = target: T2, Molt-4 DNA polymerase a (Homo sapiens, UniProt P09884); conditions: read-out: IC50 for inhibition of Molt-4 DNA polymerase a; cited from earlier work
T2 construct: host or cells: Molt-4
T2 sequence (P09884 whole entry): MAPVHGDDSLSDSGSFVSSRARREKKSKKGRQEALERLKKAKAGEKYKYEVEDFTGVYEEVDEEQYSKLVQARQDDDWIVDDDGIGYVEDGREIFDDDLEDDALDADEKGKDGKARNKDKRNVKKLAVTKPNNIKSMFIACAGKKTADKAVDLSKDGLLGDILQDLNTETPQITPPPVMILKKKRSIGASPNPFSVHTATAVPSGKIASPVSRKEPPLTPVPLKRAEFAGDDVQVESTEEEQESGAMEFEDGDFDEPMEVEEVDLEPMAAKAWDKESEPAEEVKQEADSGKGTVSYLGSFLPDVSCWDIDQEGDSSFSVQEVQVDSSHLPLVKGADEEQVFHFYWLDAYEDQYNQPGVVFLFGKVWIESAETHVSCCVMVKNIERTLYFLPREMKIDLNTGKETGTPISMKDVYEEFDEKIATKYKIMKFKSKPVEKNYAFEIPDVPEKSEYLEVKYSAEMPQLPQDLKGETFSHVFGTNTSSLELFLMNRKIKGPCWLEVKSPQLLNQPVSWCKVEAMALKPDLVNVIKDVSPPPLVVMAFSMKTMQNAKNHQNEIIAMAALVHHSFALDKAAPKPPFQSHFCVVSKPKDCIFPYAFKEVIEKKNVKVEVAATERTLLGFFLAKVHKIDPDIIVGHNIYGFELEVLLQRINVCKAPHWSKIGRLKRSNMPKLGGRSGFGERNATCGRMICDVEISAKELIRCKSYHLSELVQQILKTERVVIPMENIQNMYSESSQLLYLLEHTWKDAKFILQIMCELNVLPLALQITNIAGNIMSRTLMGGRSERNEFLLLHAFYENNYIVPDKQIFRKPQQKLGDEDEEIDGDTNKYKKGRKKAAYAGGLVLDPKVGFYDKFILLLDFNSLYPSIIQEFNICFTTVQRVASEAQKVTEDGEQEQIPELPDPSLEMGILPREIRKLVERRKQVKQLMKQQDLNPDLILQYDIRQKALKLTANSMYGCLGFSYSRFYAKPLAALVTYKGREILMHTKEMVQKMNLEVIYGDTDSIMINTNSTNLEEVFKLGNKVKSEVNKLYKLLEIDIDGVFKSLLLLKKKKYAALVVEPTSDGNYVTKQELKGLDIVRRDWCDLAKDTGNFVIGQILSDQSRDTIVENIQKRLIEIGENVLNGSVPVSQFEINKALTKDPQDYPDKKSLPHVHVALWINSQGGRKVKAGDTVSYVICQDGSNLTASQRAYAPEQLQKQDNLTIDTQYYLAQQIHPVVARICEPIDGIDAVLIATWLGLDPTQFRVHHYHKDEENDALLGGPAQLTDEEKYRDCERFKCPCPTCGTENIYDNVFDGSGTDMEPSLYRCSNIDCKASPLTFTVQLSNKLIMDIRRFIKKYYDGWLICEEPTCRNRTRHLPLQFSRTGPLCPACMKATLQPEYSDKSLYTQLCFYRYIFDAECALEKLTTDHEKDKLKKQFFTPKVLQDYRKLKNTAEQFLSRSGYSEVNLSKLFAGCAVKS
T2 sequence (Q14181 whole entry partner): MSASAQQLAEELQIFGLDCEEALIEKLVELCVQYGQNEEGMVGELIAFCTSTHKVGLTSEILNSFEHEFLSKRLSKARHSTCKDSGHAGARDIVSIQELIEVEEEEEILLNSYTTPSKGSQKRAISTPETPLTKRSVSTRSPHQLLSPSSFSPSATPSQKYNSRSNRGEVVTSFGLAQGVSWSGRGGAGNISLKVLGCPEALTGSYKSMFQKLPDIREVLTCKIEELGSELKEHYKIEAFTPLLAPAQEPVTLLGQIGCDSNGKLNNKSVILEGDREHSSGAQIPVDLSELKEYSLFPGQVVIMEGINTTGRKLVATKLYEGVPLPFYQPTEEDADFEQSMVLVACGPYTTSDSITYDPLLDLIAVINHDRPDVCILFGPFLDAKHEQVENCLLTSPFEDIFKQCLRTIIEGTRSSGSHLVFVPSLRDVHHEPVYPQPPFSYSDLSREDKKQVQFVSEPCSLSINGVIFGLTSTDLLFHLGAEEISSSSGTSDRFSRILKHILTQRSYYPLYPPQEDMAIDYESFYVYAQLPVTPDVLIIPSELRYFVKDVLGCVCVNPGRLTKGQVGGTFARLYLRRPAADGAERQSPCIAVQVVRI
T2 sequence (P49642 whole entry partner): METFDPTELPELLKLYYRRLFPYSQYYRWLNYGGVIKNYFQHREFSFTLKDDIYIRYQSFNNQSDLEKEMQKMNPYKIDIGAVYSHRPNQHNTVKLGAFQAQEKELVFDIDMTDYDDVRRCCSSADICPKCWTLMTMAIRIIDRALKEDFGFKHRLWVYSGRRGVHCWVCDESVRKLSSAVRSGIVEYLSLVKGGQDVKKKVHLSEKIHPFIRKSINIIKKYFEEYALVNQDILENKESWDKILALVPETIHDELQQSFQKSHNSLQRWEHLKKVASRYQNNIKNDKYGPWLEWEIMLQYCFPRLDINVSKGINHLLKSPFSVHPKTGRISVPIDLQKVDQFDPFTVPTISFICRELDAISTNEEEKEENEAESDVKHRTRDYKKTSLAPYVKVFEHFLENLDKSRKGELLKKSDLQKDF
T2 sequence (P49643 whole entry partner): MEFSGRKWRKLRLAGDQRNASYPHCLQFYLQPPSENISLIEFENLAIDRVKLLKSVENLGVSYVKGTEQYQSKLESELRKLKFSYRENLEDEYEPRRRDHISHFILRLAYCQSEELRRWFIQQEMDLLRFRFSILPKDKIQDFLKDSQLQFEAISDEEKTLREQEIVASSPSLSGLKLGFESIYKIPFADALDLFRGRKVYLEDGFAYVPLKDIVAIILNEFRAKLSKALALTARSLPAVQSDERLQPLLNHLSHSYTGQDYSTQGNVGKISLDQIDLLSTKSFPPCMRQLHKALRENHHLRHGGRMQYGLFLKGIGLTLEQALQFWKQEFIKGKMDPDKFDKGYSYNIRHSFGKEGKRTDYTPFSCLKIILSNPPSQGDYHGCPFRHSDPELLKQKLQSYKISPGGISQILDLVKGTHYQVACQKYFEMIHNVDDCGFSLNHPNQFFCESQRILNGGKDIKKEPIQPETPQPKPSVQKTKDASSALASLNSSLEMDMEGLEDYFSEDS

human cells in culture = conditions: cited from earlier work

CC(=O)c1cn(C2CC(O)C(COP(=O)(O)OP(=O)(O)OP(=O)(O)O)O2)c(=O)[nH]1 (stereo not shown) [dImdTP]
selectivity (HIV-reverse transcriptase vs Molt-4 DNA polymerase a) [1]: > 400 fold
IC50 [2]: 0.038 µM
IC50 (Molt-4 DNA polymerase a): 17 µM

CC(=O)c1cn([C@H]2C[C@H](O)[C@@H](CO)O2)c(=O)[nH]1 [imidine, 1-(2-deoxy-β-D-ribofuranosyl)-4-acetylimidazolin-2-one]
cytotoxicity (human cells in culture): no cytotoxicity
